This note sets out measurements from US9549964B2, “Diagnosis, prognosis, and treatment of kidney disease” (Beth Israel Deaconess Medical Center, Inc., priority 2011, dated 2017).

The test system of series [1] is human serum albumin. Nature of the series: Prevention of albumin carbamylation by cyanate in the presence of competing nucleophiles (% C-Alb by LC-MS). As to conditions: 10 mM scavenger, 0.25 mM cyanate, 37° C., 14 hours; for % CarbAlb Average +/− SD / % Decrease compared to no inhibitor: human serum albumin 4 mg/ml.
Procedure: The pH of each was adjusted to pH 7.4 using HCl. HSA (4 mg/mL) was added to each amino acid solution, and then mixed 1:1 with 0.5 mM potassium cyanate in 100 mM potassium phosphate pH 7.4 (0.25 mM cyanate final concentration). […] Desalted albumin was then denatured and digested for analysis as described above.
To this, we added 0.25 mM cyanate, incubated at 37° C. for 14 hours, and analyzed for % C-Alb thereafter (Table 11).
Series [2] is described as follows: Cyanate titration of an equimolar amino acid mixture (susceptibility of amino acids to carbamylation). Particulars: increasing cyanate, physiological buffer pH 7.4, overnight 37° C. The procedure:
Carbamylation titration experiments were performed using an amino acid standard mix from Sigma Aldrich (Cat. No. AAS18) supplemented with tryptophan, cysteine, and glutamine; all amino acids were equimolar (2.5 mM stock). The 0.1 N HCl in the standard solution was neutralized with ammonium hydroxide and removed by lyophilization, and the dried amino acids were diluted to final concentration of 50 μM (each) in 100 mM potassium phosphate pH 7.4. […] Carbamylation was halted with addition of 1 M HCl, and excess cyanate and HCl were removed by vacuum lyophilization at room temperature. Isotopic standards were then mixed with the reactions, the tube were re-lyophilized, and amino acid mixtures were then S-alkylated with iodoacetamide, butylated with butanolic HCl, and analyzed using methods similar to those described for serum amino acids.
To differentiate the isocyanate-scavenging ability of individual amino acids, we added increasing concentrations of cyanate to an equimolar mixture of all twenty amino acids in a physiological buffer. As expected, increasing concentration of cyanate produced linear increases of all carbamylated amino acids and depletion of their unmodified forms (FIGS. 9A and 9B). From the titration curves, we calculated the cyanate concentration at which 10% unmodified amino acid forms were depleted.

Residues, ends and D or L forms follow the SMILES beside them.

In the case of `NCC(=O)O` [Glycine], the “% CarbAlb Average +/− SD” value in series [1] is recorded as 31 ± 1.8%.

With `N[C@@H](Cc1c[nH]cn1)C(=O)O` [Histidine], the “Susceptibility to carbamylation / cyanate binding (in words)” value in series [2] is listed as “prone to carbamylation at low cyanate concentrations”. The “% CarbAlb Average +/− SD” value in series [1] is 26 ± 1.0%.

As to `NCCS(=O)(=O)O` [Taurine], in series [1], the “Prevention of C-Alb formation / cyanate scavenging (in words)” value is recorded as “effectively scavenged cyanate” and the “% CarbAlb Average +/− SD” value is listed as 22 ± 1.7%.

As to `N[C@@H](CS)C(=O)O` [Cysteine], the “Susceptibility to carbamylation / cyanate binding (in words)” value in series [2] is given as “very high cyanate binding avidity by the free thiol group”. In series [1], the “Prevention of C-Alb formation / cyanate scavenging (in words)” value is listed as “prevented C-Alb formation” and the “% CarbAlb Average +/− SD” value came out at 23 ± 1.9%.

Regarding `N=C(N)NCCC[C@H](N)C(=O)O` [Arginine], in series [2], the “Susceptibility to carbamylation / cyanate binding (in words)” value is listed as “prone to carbamylation at low cyanate concentrations”. The “% CarbAlb Average +/− SD” value in series [1] was determined as 27 ± 1.6%.

As to `NC(=O)CC[C@H](N)C(=O)O` [Glutamine], in series [1], the “% CarbAlb Average +/− SD” value is 32 ± 2.9%.

Regarding `C[C@H](N)C(=O)O` [Alanine], in series [1], the “% CarbAlb Average +/− SD” value worked out at 32 ± 1.7%.

With `NCC(=O)NCC(=O)O` [Glycylglycine] (H-Gly-Gly-OH), the “Susceptibility to carbamylation / cyanate binding (in words)” value in series [2] is reported as “more strongly carbamylated than glycine or other amino acids”.

Take `CC(C)C[C@H](N)C(=O)O` [Leucine]: in series [1], the “% CarbAlb Average +/− SD” value is listed as 37 ± 2.2%.

On to `NCCCC[C@H](N)C(=O)O` [Lysine], for which the “Susceptibility to carbamylation / cyanate binding (in words)” value in series [2] is “did not avidly bind cyanate”. In series [1], the “% CarbAlb Average +/− SD” value worked out at 31 ± 0.9% and the “% Decrease compared to no inhibitor” value is 21%.

In the case of `O=C(O)[C@@H]1CCCN1` [Proline], the “% CarbAlb Average +/− SD” value in series [1] is on record as 34 ± 1.6%.

As to `N[C@@H](CCC(=O)O)C(=O)O` [Glutamate], in series [1], the “% CarbAlb Average +/− SD” value was found to be 38 ± 1.2% and the “% Decrease compared to no inhibitor” value stood at 3%.

Take `N[C@@H](Cc1c[nH]c2ccccc12)C(=O)O` [Tryptophan]: the “% CarbAlb Average +/− SD” value in series [1] stood at 32 ± 2.7%.

Turning to `CC(C)[C@H](N)C(=O)O` [Valine], in series [1], the “% CarbAlb Average +/− SD” value worked out at 33 ± 1.1% and the “% Decrease compared to no inhibitor” value amounted to 16%.

`N[C@@H](CCC(=O)N[C@@H](CS)C(=O)NCC(=O)O)C(=O)O` [Glutathione]: in series [1], the “% CarbAlb Average +/− SD” value is given as 29 ± 1.4%.
